Results as given in ChEMBL document CHEMBL4311969, “Polygala tenuifolia-Acori tatarinowii herbal pair as an inspiration for substituted cinnamic α-asaronol esters: Design, synthesis, anticonvulsant activity, and inhibition of lactate dehydrogenase study” (Eur J Med Chem, 2019).
Several values for one entry are separate records, joined by “and”; a condition that tells them apart may be missing. Equal values may be shown once. Activity calls are given as the source filed them. No cut-off for these calls is given here.

Columns and labels:
Homo sapiens [1] = organism: Homo sapiens; assay: Inhibition of human LDH1 at 0.5 mM using sodium pyruvate as substrate by UV-VIS spectrophotometry method relative to control
[2] = Neurotoxicity against Kunming mouse assessed as time remained in rod at 100 mg/kg, ip administered 0.5 to 2 hrs by rotarod test; format: toxicity, organism-based; settings: in vivo
Mus musculus [3] = assay: Anticonvulsant activity in Kunming mouse assessed as MES-induced hind limb extension at 100 mg/kg, ip administered 0. 5 to 4 hrs before MES stimulation relative to control; format: functional
Mus musculus [4] = assay: Anticonvulsant activity in Kunming mouse assessed as MES-induced hind limb extension at 100 mg/kg, ip administered 0. 5 to 2 hrs before MES stimulation; format: functional, organism-based
Homo sapiens [5] = organism: Homo sapiens; assay: Inhibition of human LDH5 at 0.5 mM using sodium pyruvate as substrate by UV-VIS spectrophotometry method relative to control
Mus musculus [6] = assay: Anticonvulsant activity in Kunming mouse assessed as MES-induced hind limb extension at 100 mg/kg, ip administered 3 hrs before MES stimulation; format: functional, organism-based
[7] = Neurotoxicity against ip dosed Kunming mouse assessed as time remained in rod measured at 0.5 hrs by rotarod test; format: toxicity, organism-based; settings: in vivo
Mus musculus [8] = assay: Anticonvulsant activity in ip dosed Kunming mouse assessed as MES-induced hind limb extension administered 0.5 hrs before MES stimulation; format: functional
Mus musculus [9] = assay: Anticonvulsant activity in ip dosed Kunming mouse assessed as reduction in ScPTZ-induced seizure administered 0.5 hrs before ScPTZ stimulation; format: functional
Mus musculus [10] = assay: […] activity in ip dosed Kunming mouse assessed as reduction in formalin-induced paw licking administered 0.5 hrs before formalin stimulation; format: functional
[11] = Protective index, ratio of TD50 for neurotoxicity against ip dosed Kunming mouse assessed as time remained in rod measured at 0.5 hrs by rotarod test to ED50 for […] activity in ip dosed Kunming mouse assessed as reduction in formalin-induced paw licking administered 0.5 hrs before formalin stimulation; format: toxicity, organism-based; settings: in vivo, read-out: PI
[12] = Protective index, ratio of TD50 for neurotoxicity against ip dosed Kunming mouse assessed as time remained in rod measured at 0.5 hrs by rotarod test to ED50 for anticonvulsant activity in ip dosed Kunming mouse assessed as reduction in ScPTZ-induced seizure administered 0.5 hrs before ScPTZ stimulation; format: toxicity, organism-based; settings: in vivo, read-out: PI
[13] = Protective index, ratio of TD50 for neurotoxicity against ip dosed Kunming mouse assessed as time remained in rod measured at 0.5 hrs by rotarod test to ED50 for anticonvulsant activity in ip dosed Kunming mouse assessed as reduction in Sc3-MP-induced seizure administered 0.5 hrs before Sc3-MP stimulation; format: toxicity, organism-based; settings: in vivo, read-out: PI
Mus musculus [14] = assay: Anticonvulsant activity in Kunming mouse assessed as reduction in Sc3-MP-induced clonic seizure rate at 300 mg/kg, ip administered 0.5 hrs before Sc3-MP stimulation relative to control; format: functional; design: scale not given: the % may be the effect or the level left
Mus musculus [15] = assay: Anticonvulsant activity in Kunming mouse assessed as reduction in Sc3-MP-induced seizure ip dosed measured at 0.5 hrs before Sc3-MP stimulation; format: functional
Mus musculus [16] = assay: Anticonvulsant activity in Kunming mouse assessed as reduction in Sc3-MP-induced tonic seizure rate at 300 mg/kg, ip administered 0.5 hrs before Sc3-MP stimulation relative to control; format: functional; design: scale not given: the % may be the effect or the level left
[17] = Protective index, ratio of TD50 for neurotoxicity against ip dosed Kunming mouse assessed as time remained in rod measured at 0.5 hrs by rotarod test to ED50 for anticonvulsant activity in ip dosed Kunming mouse assessed as MES-induced hind limb extension administered 0.5 hrs; format: toxicity, organism-based; settings: in vivo, read-out: PI
Mus musculus [18] = assay: Anticonvulsant activity in Kunming mouse assessed as reduction in ScPTZ-induced clonic seizure at 300 mg/kg, ip administered 0.5 hrs before ScPTZ stimulation relative to control; format: functional; design: scale not given: the % may be the effect or the level left
Mus musculus [19] = assay: Anticonvulsant activity in Kunming mouse assessed as reduction in ScPTZ-induced seizure at 100 mg/kg, ip administered 0.25 and 1 hrs before ScPTZ stimulation relative to control; format: functional; design: scale not given: the % may be the effect or the level left
Mus musculus [20] = assay: Anticonvulsant activity in Kunming mouse assessed as MES-induced hind limb extension at 50 mg/kg, ip administered 0.5 to 4 hrs before MES stimulation relative to control; format: functional
Mus musculus [21] = assay: Anticonvulsant activity in Kunming mouse assessed as reduction in ScPTZ-induced tonic seizure rate at 100 mg/kg, ip administered 0.5 hrs before ScPTZ stimulation relative to control; format: functional; design: scale not given: the % may be the effect or the level left
Mus musculus [22] = assay: Anticonvulsant activity in Kunming mouse assessed as reduction in ScPTZ-induced clonic seizure at 100 mg/kg, ip administered 0.5 hrs before ScPTZ stimulation relative to control; format: functional; design: scale not given: the % may be the effect or the level left
Mus musculus [23] = assay: Anticonvulsant activity in Kunming mouse assessed as reduction in ScPTZ-induced seizure at 300 mg/kg, ip administered 0.25 to 2 hrs before ScPTZ stimulation relative to control; format: functional; design: scale not given: the % may be the effect or the level left
Mus musculus [24] = assay: Anticonvulsant activity in Kunming mouse assessed as reduction in ScPTZ-induced tonic seizure rate at 300 mg/kg, ip administered 0.5 hrs before ScPTZ stimulation relative to control; format: functional; design: scale not given: the % may be the effect or the level left
Mus musculus [25] = assay: Anticonvulsant activity in Kunming mouse assessed as reduction in ScPTZ-induced seizure at 100 mg/kg, ip administered 0.25 to 2 hrs before ScPTZ stimulation relative to control; format: functional; design: scale not given: the % may be the effect or the level left

Row | Structure (SMILES) | inhibition (Homo sapiens [1]) | Activity [2] | Activity (Mus musculus [3]) | Activity (Mus musculus [4]) | inhibition (Homo sapiens [5]) | other results
1 | COc1cc(OC)c(OC)cc1/C=C/COC(=O)/C=C/c1cccc(C(F)(F)F)c1 | < 5% | Non-Toxic | inactive | Active | < 9% | –
2 | COc1cc(OC)c(OC)cc1/C=C/COC(=O)/C=C/c1cccc(Cl)c1 | < 5% | Non-Toxic | 25 - 100% | Active | < 9% | –
3 | COc1cc(OC)c(OC)cc1/C=C/COC(=O)/C=C/c1ccccc1Br | < 5% | Non-Toxic | inactive | Active | < 9% | –
4 | COc1cc(OC)c(OC)cc1CCCOC(=O)/C=C/c1cc(OC)c(OC)c(OC)c1 | < 5% | Non-Toxic | 25 - 100% | Active | 9% | Activity (Mus musculus [6]): Active
5 | COc1cc(OC)c(OC)cc1/C=C/COC(=O)/C=C/c1c(OC)cccc1OC | inactive | Non-Toxic | 25 - 100% | Active | inactive | Activity (Mus musculus [6]): Active
6 | COc1cc(OC)c(OC)cc1CCCNC(=O)/C=C/c1cc(OC)c(OC)c(OC)c1 | < 5% | Non-Toxic | 25 - 100% | Active | 9% | –
7 | COC[C@@H](NC(C)=O)C(=O)NCc1ccccc1 [LACOSAMIDE] | – | – | – | – | – | TD50 at 0.5 h [7]: 135 µmol/kg; ED50 (Mus musculus [8]): 37.6 µmol/kg and 9.4 mg/kg; ED50 (Mus musculus [9]): > 500 mg/kg and > 2000 µmol/kg; ED50 (Mus musculus [10]): 15 mg/kg and 0.1 µmol/kg; selectivity ratio at 0.5 h [11]: 2.2; selectivity ratio at 0.5 h [12]: < 0.1
8 | COc1cc(OC)c(OC)cc1/C=C/CNC(=O)/C=C/c1cc(OC)c(OC)c(OC)c1 | < 5% | Non-Toxic | 25 - 100% | Active | 9% | –
9 | COc1cc(OC)c(OC)cc1/C=C/COC(=O)/C=C/c1cccc(F)c1 | < 5% | Non-Toxic | 25 - 100% | Active | < 9% | Activity (Mus musculus [6]): Active
10 | COc1cc(OC)c(OC)cc1/C=C/COC(=O)/C=C/c1cccc(OC)c1OC | inactive | Non-Toxic | 25 - 100% | Active | inactive | Activity (Mus musculus [6]): Active
11 | COc1ccc(OC)c(/C=C/C(=O)OC/C=C/c2cc(OC)c(OC)cc2OC)c1 | – | Non-Toxic | 25 - 100% | Active | – | Activity (Mus musculus [6]): Active
12 | COc1cc(OC)c(OC)cc1/C=C/COC(=O)/C=C/c1c(OC)c(OC)cc(OC)c1OC | Active | Non-Toxic | 25 - 100% | Active | Active | selectivity ratio at 0.5 h [13]: 5; Activity (Mus musculus [14]): 100%; ED50 (Mus musculus [15]): > 300 mg/kg and > 632 µmol/kg; Activity (Mus musculus [16]): 75%; selectivity ratio at 0.5 h [17]: > 17.3; Activity (Mus musculus [18]): 100%; TD50 at 0.5 h [7]: > 2110 µmol/kg and > 1000 mg/kg; ED50 (Mus musculus [8]): 122 µmol/kg and 57.9 mg/kg; Activity (Mus musculus [19]): 75%; Activity (Mus musculus [20]): 50%; Activity (Mus musculus [21]): 25%; Activity (Mus musculus [22]): 100%; Activity (Mus musculus [23]): 50%; Activity (Mus musculus [24]): 25%; Activity (Mus musculus [25]): 25%; ED50 (Mus musculus [9]): 149 mg/kg and 314 µmol/kg; ED50 (Mus musculus [10]): 50.8 mg/kg and 107 µmol/kg; selectivity ratio at 0.5 h [11]: 19.7; selectivity ratio at 0.5 h [12]: 6.7
13 | COc1cc(/C=C/C(=O)O)cc(OC)c1OC [SINAPIC ACID METHYL ETHER] | – | Non-Toxic | – | Active | – | –
14 | COc1cc(OC)c(OC)cc1/C=C/COC(=O)/C=C/c1ccccc1F | < 5% | Non-Toxic | inactive | Active | < 9% | –
15 | COc1cc(/C=C/C(=O)OC/C=C/c2cc(OC)c(OC)cc2OC)cc(OC)c1 | inactive | Non-Toxic | 25 - 100% | Active | inactive | –
16 | COc1cc(OC)c(OC)cc1/C=C/COC(=O)/C=C/c1c(OC)c(OC)c(OC)c(OC)c1OC | inactive | Non-Toxic | inactive | Active | inactive | –
17 | COc1ccc(/C=C/C(=O)OC/C=C/c2cc(OC)c(OC)cc2OC)c(OC)c1 | inactive | Non-Toxic | 25 - 100% | Active | inactive | –
18 | COc1cc(OC)c(OC)cc1/C=C/COC(=O)/C=C/c1ccc(C(F)(F)F)cc1 | < 5% | Non-Toxic | 25 - 100% | Active | < 9% | –
